Test results from US20240262822A1, “WDR5 INHIBITORS AND MODULATORS” (Vanderbilt University, priority 2021, published 2024).
pKi: −log10 of the molar value.

What was measured:
WDR5 = biological target: T1, WDR5 (Homo sapiens, UniProt P61964); assay: Time Resolved-Fluorescence Energy Transfer (TR-FRET) competition assay, displacement of 10mer-Thr-FAM probe from His-tagged WDR5; assay type: binding; conditions: WDR5-His tag 2 nM, 10mer-Thr-FAM 150 nM, 60 minutes at room temperature; read-out: Ki for Exemplified Compounds for Inhibition of WDR5 by TR-FRET assay
T1 construct: WDR5-His Tag (A23, residues 24-334) is expressed and purified in our lab; made in house
Summary of the method: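 Competitive TR-FRET using 2 nM His-tagged WDR5 (residues 24-334), 1 nM Tb-anti-His antibody and 150 nM 10mer-Thr-FAM probe; compounds in a 10-point, 5-fold series from 5 μM, ≤1% DMSO. Incubated 60 min at room temperature in PBS with 300 mM NaCl, 0.5 mM TCEP, 0.1% CHAPS, pH 7.2; 520/495 nm emission gave IC50, converted to Ki by the Wang equation.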

[1] = test system: MV4:11 human cancer cell lines; assay: Cellular viability / anti-proliferative activity, CellTiter-Glo, 5 day protocol; assay type: cell-based; conditions: Homo sapiens, MV4-11, 120 h, MV4:11 cells, 5 day incubation, read-out: GI50 for representative compounds on cellular proliferation of MV4:11 human cancer cell lines
Protocol: Anti-proliferative activity using MLL-harboring cell lines. MV-4-11 and K562 cells are grown in IMDM media supplemented with 10% FBS and 1% penicillin/streptomycin, Molm-13 cells are cultured in RPMI-1640 media supplemented with 10% FBS and 1% penicillin/streptomycin. Viability assays are performed by dispensing 200 cells at 7200 cells/mL into each well of an opaque 384-well plate and adding compounds at the indicated concentrations in a final volume of 32 μL and a final concentration of DMSO of 0.3% for all samples. A certain range of compound concentrations is made through a series of 2-fold dilutions starting 30 μM at the highest, total 22 dilutions. After a set incubation period, 5 day protocol, the viability of cells in each well is assessed using the CellTiter-Glo assay (Promega), read on a 96 Microplane Luminometer (Cytation 3, BioTek). Serial dilutions of each cell type are performed in all assays to generate standard curves and the final densities of cells are determined within the dynamic range of the instrument. GI50 values are calculated based on XLfit software (IDBS, Guildford, UK) with Sigmoidal Dose-Response Model. Each compound is tested in minimum of two replicates. Data are expressed as mean.

Row | Structure (SMILES) | pKi (WDR5) | GI50 [1] [nM]
1 | CCc1cc2c(N3CCc4c(cc(Cn5ccnc5)cc4-c4cn(C)nc4C(F)(F)F)C3=O)ccnc2c(-n2cccc2)n1 [Example 35, 7-((1H-Imidazol-1-yl)methyl)-2-(6-ethyl-8-(1H-pyrrol-1-yl)-1,7-naphthyridin-4-yl)-5-(1-methyl-3-(trifluoromethyl)-1H-pyrazol-4-yl)-3,4-dihydroisoquinolin-1(2H)-one] | > 10.70 | 47
2 | CCOc1nc(CC)cc2c(N3CCc4c(cc(Cn5ccnc5)cc4-c4cn(C)nc4C(F)(F)F)C3=O)ccnc12 [Example 36, 7-((1H-Imidazol-1-yl)methyl)-2-(8-ethoxy-6-ethyl-1,7-naphthyridin-4-yl)-5-(1-methyl-3-(trifluoromethyl)-1H-pyrazol-4-yl)-3,4-dihydroisoquinolin-1(2H)-one] | > 10.70 | < 20
3 | CCc1cc2c(N3CCc4c(cc(Cn5ccnc5)cc4-c4cn(C)nc4C(F)(F)F)C3=O)ccnc2c(CC)n1 [Example 37, 7-((1H-Imidazol-1-yl)methyl)-2-(6,8-diethyl-1,7-naphthyridin-4-yl)-5-(1-methyl-3-(trifluoromethyl)-1H-pyrazol-4-yl)-3,4-dihydroisoquinolin-1(2H)-one] | > 10.70 | 96
4 | CCc1cc2c(N3CCc4c(cc(Cn5ccnc5)cc4-c4cn(C)nc4C(F)(F)F)C3=O)ccnc2c(OCC(F)F)n1 [Example 39, 7-((1H-Imidazol-1-yl)methyl)-2-(8-(2,2-difluoroethoxy)-6-ethyl-1,7-naphthyridin-4-yl)-5-(1-methyl-3-(trifluoromethyl)-1H-pyrazol-4-yl)-3,4-dihydroisoquinolin-1(2H)-one] | > 10.70 | < 20
5 | CCc1cc2c(N3CCc4c(cc(Cn5ccnc5)cc4-c4cn(C)nc4C(F)(F)F)C3=O)ncnc2cc1OC [Example 43, 7-((1H-Imidazol-1-yl)methyl)-2-(6-ethyl-7-methoxyquinazolin-4-yl)-5-(1-methyl-3-(trifluoromethyl)-1H-pyrazol-4-yl)-3,4-dihydroisoquinolin-1(2H)-one] | > 10.70 | < 20
6 | CCc1cc2c(N3CCc4c(cc(Cn5ccnc5)cc4-c4cn(C)nc4C(F)(F)F)C3=O)ccnc2c(N2CCOCC2)n1 [Example 44, 7-((1H-Imidazol-1-yl)methyl)-2-(6-ethyl-8-morpholino-1,7-naphthyridin-4-yl)-5-(1-methyl-3-(trifluoromethyl)-1H-pyrazol-4-yl)-3,4-dihydroisoquinolin-1(2H)-one] | > 10.70 | < 20
7 | CCc1cc2c(N3CCc4c(cc(Cn5ccnc5)cc4-c4cn(C)nc4C(F)(F)F)C3=O)ccnc2c(-c2ccncc2)n1 [Example 45, 7-((1H-Imidazol-1-yl)methyl)-2-(6-ethyl-8-(pyridin-4-yl)-1,7-naphthyridin-4-yl)-5-(1-methyl-3-(trifluoromethyl)-1H-pyrazol-4-yl)-3,4-dihydroisoquinolin-1(2H)-one] | > 10.70 | 21
8 | CCc1cc2c(N3CCc4c(cc(Cn5ccnc5)cc4-c4cn(C)nc4C(F)(F)F)C3=O)ccnc2c(N2CCN(C)CC2)n1 [Example 46, 7-((1H-Imidazol-1-yl)methyl)-2-(6-ethyl-8-(4-methylpiperazin-1-yl)-1,7-naphthyridin-4-yl)-5-(1-methyl-3-(trifluoromethyl)-1H-pyrazol-4-yl)-3,4-dihydroisoquinolin-1(2H)-one] | > 10.70 | < 20
9 | CCc1cc2c(N3CCc4c(cc(Cn5ccnc5)cc4-n4nc(C)cc4C(F)(F)F)C3=O)ccnc2c(OC)n1 [Example 47, 7-((1H-Imidazol-1-yl)methyl)-2-(6-ethyl-8-methoxy-1,7-naphthyridin-4-yl)-5-(3-methyl-5-(trifluoromethyl)-1H-pyrazol-1-yl)-3,4-dihydroisoquinolin-1(2H)-one] | 10.62 | 296
10 | CCc1cc2c(N3CCc4c(cc(Cn5ccnc5)cc4-c4cn(C)nc4C(F)(F)F)C3=O)cc(C)nc2c(OC)n1 [Example 48, 7-((1H-Imidazol-1-yl)methyl)-2-(6-ethyl-8-methoxy-2-methyl-1,7-naphthyridin-4-yl)-5-(1-methyl-3-(trifluoromethyl)-1H-pyrazol-4-yl)-3,4-dihydroisoquinolin-1(2H)-one] | > 10.70 | < 20
11 | COc1cc2nncc(N3CCc4c(cc(Cn5ccnc5)cc4-c4cn(C)nc4C(F)(F)F)C3=O)c2cc1OC [Example 49, 7-((1H-Imidazol-1-yl)methyl)-2-(6,7-dimethoxycinnolin-4-yl)-5-(1-methyl-3-(trifluoromethyl)-1H-pyrazol-4-yl)-3,4-dihydroisoquinolin-1(2H)-one] | > 10.70 | < 20
12 | COc1cc(OC)c2ncnc(N3CCc4c(cc(Cn5ccnc5)cc4-c4cn(C)nc4C(F)(F)F)C3=O)c2c1 [Example 50, 7-((1H-Imidazol-1-yl)methyl)-2-(6,8-dimethoxyquinazolin-4-yl)-5-(1-methyl-3-(trifluoromethyl)-1H-pyrazol-4-yl)-3,4-dihydroisoquinolin-1(2H)-one] | 10.66 | < 20
13 | CCc1cc(OC)c2nc(C)nc(N3CCc4c(cc(Cn5ccnc5)cc4-c4cn(C)nc4C(F)(F)F)C3=O)c2c1 [Example 51, 7-((1H-Imidazol-1-yl)methyl)-2-(6-ethyl-8-methoxy-2-methylquinazolin-4-yl)-5-(1-methyl-3-(trifluoromethyl)-1H-pyrazol-4-yl)-3,4-dihydroisoquinolin-1(2H)-one] | 10.66 | < 20
14 | CCc1cc2c(N3CCc4c(cc(Cn5ccnc5)cc4-c4cn(C)nc4C(F)(F)F)C3=O)ccnc2c(COC)n1 [Example 52, 7-((1H-Imidazol-1-yl)methyl)-2-(6-ethyl-8-(methoxymethyl)-1,7-naphthyridin-4-yl)-5-(1-methyl-3-(trifluoromethyl)-1H-pyrazol-4-yl)-3,4-dihydroisoquinolin-1(2H)-one] | 10.52 | 80
15 | COc1cc2c(N3CCc4c(cc(Cn5ccnc5)cc4-c4cn(C)nc4C(F)(F)F)C3=O)nc(C)nc2cc1F [Example 53, 7-((1H-Imidazol-1-yl)methyl)-2-(7-fluoro-6-methoxy-2-methylquinazolin-4-yl)-5-(1-methyl-3-(trifluoromethyl)-1H-pyrazol-4-yl)-3,4-dihydroisoquinolin-1(2H)-one] | > 10.70 | < 20
16 | COc1cc2c(N3CCc4c(cc(Cn5ccnc5)cc4-c4cn(C)nc4C(F)(F)F)C3=O)nc(C)nc2cc1N1CCC1 [Example 54, 7-((1H-Imidazol-1-yl)methyl)-2-(7-(azetidin-1-yl)-6-methoxy-2-methylquinazolin-4-yl)-5-(1-methyl-3-(trifluoromethyl)-1H-pyrazol-4-yl)-3,4-dihydroisoquinolin-1(2H)-one] | > 10.70 | 81
17 | CNc1cc2nc(C)nc(N3CCc4c(cc(Cn5ccnc5)cc4-c4cn(C)nc4C(F)(F)F)C3=O)c2cc1OC [Example 55, 7-((1H-Imidazol-1-yl)methyl)-2-(6-methoxy-2-methyl-7-(methylamino)quinazolin-4-yl)-5-(1-methyl-3-(trifluoromethyl)-1H-pyrazol-4-yl)-3,4-dihydroisoquinolin-1(2H)-one] | > 10.70 | 47
